Where a SMILES comes first, the peptide text is derived from it. The star is where a group is joined. Boc = CC(C)(C)OC(=O)*
What was measured:
[1] = system: 2C'3ABCD portion of the HRV polyprotein precursor; assay: In Vitro Translation of HRV RNA (rabbit reticulocyte lysate, autoradiography); type: biochemical, human rhinovirus; settings: for Processing of translated viral polyprotein (autoradiography): inhibitor included in cell-free translation assay
Source text: In a cell-free translation system, when no inhibitor was present, RNA corresponding to the 2C'3ABCD portion of the HRV polypeptide precursor was translated into the various individual proteins of the virus. […]
Complementary DNA derived from the HRV genone and representing the 2C'3ABCD portion of the HRV polyprotein precursor (Lee W, Monroe S S, Reuckert R R (1993) J. Virol 67:211-2122) was inserted into the commercially available pCITE vector (Novagen, 565 Science Dr., Madison, Wis.). The vector is supplied with the Novagen Red Nova® Lysate translation assay kit, which provides a lysate of New Zealand White rabbit reticulocytes along with other reagents, that allows for efficient cell-free synthesis of proteins from exogenous RNA templates.
The pCITE 2C'3ABCD-containing plasmid was used to transform the JM101 cell line (Stratagene, La Jolla, Calif.) which was then grown under standardard conditions ([…], 37° C.) in 2× YT broth with ampicillin. The plasmid was then isolated by standard CsCl banding procedures.
The DNA was linearized by treatign the plasmid with 2 unitsMlu 1 restriction enzyme per μg DNA for 3 hours at 37° C., followed by proteinase K (50 μg/mL) treatment for 30 minutes at 37° C. The mixture was extracted twice with phenol/chloroform/isoamyl alcohol (1:1:1) followed by two extractions with chloroform/isoamyl alcohol (1:1). A 0.1 volume 3M sodium acetate (NaOAc), pH 5.2 and two volumes of 100% ethanol were added before placing at -80° C. for 60 minutes. The supernatant was decanted and the pellet was rinsed with 70% ethanol, dried under vacuum, and then resuspended in 25 μL Tris-EDTA buffer (10 mM Tris, 1 mM EDTA; pH 7.6). […]
The compounds of Formula I were assayed according to the Red Nova protocol for their ability to inhibit translation of the rhinoviral RNA by the reticulocyte lysate. ^3 H-Leucine (5 mCi/mL) was included in the assay mixture so that translation products could be identified by autoradiography when the samples were analyzed by SDS polyacrylamide gel electrophoresis. […]

HRV = assay: Whole Cell Culture Assay of Anti-HRV Activity (Hela cells, XTT); type: cell-based, human rhinovirus; settings: concentration not given
Procedure: A third measure of antiviral activity was performed by determining the effects of selected 3C protease inhibitors of Formula I on HRV infection in cultures of Hela cells.
Commercially available Hela cells are susceptible to HRV infection. The virus enters the cells where it readily replicates and when infection levels become high enough, the Hela cells die. The effect of HRV inhibitors can be measured in Hela cultures by first exposing the cells to HRV and shortly thereafter (before viral infection becomes critical) adding potential inhibitors. Compounds which inhibit 3C protease activity serve to protect the cells from the cytopathic effect of the virus. Comparison of viability in cultures receiving serial dilutions of inhibitor to cultures not receiving any inhibitor allows quantitation of the antiviral effect. Any toxic effect of the inhibitor can also be measured by comparing viability of treated cultures with those cultures which are not infected with the virus.
Viability determinations can be readily made by direct counts of viable cells or by assays representative of viability such as measurement of mitochondrial enzyme activity.
Hela cells were dispersed in a 96-well tissue culture plate at 20,000 cells per well with minimum essential medium containing Earl's balanced salt solution, 1% fetal bovine serum, penicillin (150 units/mL) and streptomycin (150 μg/mL). […]

Structure (SMILES)	Processing of translated viral polyprotein (autoradiography) [1]	Translation Assay (toxic) ([1]; at the dose tested (dose not given))	Whole Cell Antiviral Testing (toxic) (HRV)
CC(C)C[C@H](NC(=O)[C@@H](NC(=O)OC(C)(C)C)C(C)C)C(=O)N[C@@H](Cc1ccccc1)C(=O)N[C@H](C=O)CCC(N)=O [Example 5, N-(t-butoxycarbonyl-L-valinyl-L-leucinyl-L-phenylalanyl)-L-gluatamine aldehyde] (Boc-VLFQ-aldehyde)	single unprocessed band		
CC(C)C[C@H](N)C(=O)N[C@@H](Cc1ccccc1)C(=O)N[C@H](C=O)CCC(N)=O [Example 7, N-(L-leucinyl-L-phenylalanyl)-L-glutamine aldehyde] (H-Leu-Phe-Gln-aldehyde)		toxic	toxic
CC(=O)N[C@@H](CC(C)C)C(=O)N[C@@H](Cc1ccccc1)C(=O)N[C@H](C=O)CCC(N)=O [Example 6, N-(Acetyl-L-leucinyl-L-phenylalanyl)-L-glutamine aldehyde] (Ac-Leu-Phe-Gln-aldehyde)	single unprocessed band		

— patent US5821331A, “Anti-picornaviral agents” (Eli Lilly and Company, priority 1996, dated 1998)
